Measurements taken from patent publication US20170080009A1, “Oligonucleotide Compositions and Methods for Treating Acute Lymphoblastic Leukemia” (priority 2014, published 2017).
Where two headings read alike, the source gives them in different places.

Legend:
B6 ALL cells [1] = assay: Cell viability assay, B6 ALL cells; assay type: cell-based, mouse
DG75 cells = assay: Cell viability assay, DG75 cells; assay type: cell-based, human; settings: 72 hour exposure prior to viability
Molt-4 cells = assay: Cell viability assay, Molt-4 cells; assay type: cell-based, human; settings: 72 hour exposure prior to viability
SUP-B15 cells = assay: Cell viability assay, SUP-B15 cells; assay type: cell-based, human; settings: 72 hour exposure prior to viability
CCRF-CEM cells = assay: Cell viability assay, CCRF-CEM cells; assay type: cell-based, human; settings: 72 hour exposure prior to viability
B6 ALL cells [2] = assay: Annexin V / PI apoptosis assay, B6 ALL cells; assay type: cell-based, mouse
Protocol: (§1) Cells were seeded in 6-well μ[…] in 3 mls, grown for 2 days and treated with the indicated drug. After centrifugation and washing in cold PBS cells were stained with PI (Sigma Aldrich, St. Louis, Mo.) and APC-conjugated Annexin V in a binding buffer (0.1 M Hepes (pH 7.4), 1.4 M NaCl, and 25 mM CaCl2 solution) (BD Pharmingen, San Jose, Calif.) according to the manufacturer's protocol. Flow cytometric analysis was conducted on a Accuri flow cytometer (BD Biosciences). […] FIG. 1 A) Flow cytometry of Annexin V assay. […] B) Quantitation of non-apoptotic cells.

SUP-B15 ALL cells = assay: Annexin V / PI apoptosis assay, SUP-B15 cells; assay type: cell-based, human
Protocol: as §1

TS = target: T1, TS (Homo sapiens, UniProt P04818); assay: TS catalytic activity in treated Jurkat cells; assay type: cell-based
T1 construct: Jurkat cells were exposed to 10 nM FdUMP[10] or 100 nM 5-FU for the indicated time, lysed and assayed for TS activity; endogenous in cells; host or cells: Jurkat
T1 sequence (P04818 whole entry): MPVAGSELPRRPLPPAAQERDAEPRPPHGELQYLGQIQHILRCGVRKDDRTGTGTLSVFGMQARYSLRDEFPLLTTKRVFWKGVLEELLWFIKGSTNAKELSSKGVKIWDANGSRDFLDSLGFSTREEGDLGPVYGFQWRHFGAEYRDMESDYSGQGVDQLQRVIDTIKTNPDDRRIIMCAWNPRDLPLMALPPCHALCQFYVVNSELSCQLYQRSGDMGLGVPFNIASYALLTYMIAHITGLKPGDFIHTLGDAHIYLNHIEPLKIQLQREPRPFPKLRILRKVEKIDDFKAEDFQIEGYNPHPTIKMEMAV
Protocol: Cells were plated at 1.5×10^6 cells in 100 mm2 plates and grown overnight in RPMI 1640 medium with 20% FBS. Cells were exposed to the indicated drug for 8, 16, 24, or 48 hours. Cells were then harvested in 25 mM Tris-HCl, pH 7.4 with Complete Protease Inhibitor Cocktail (Roche), put through 2 freeze/thaw cycles, and vortexed. The lysates were centrifuged at 10,000×g for 10 minutes at 4° C. TS assays were performed in a final volume of 200 μl containing 75 μM 5,10 methylene tetrahydrofolate in 0.5 M NaOH (Schircks Laboratories, Switzerland), 10 μM dUMP, 200,000 dpm of 3H-dUMP (Moravek Biochemicals), 100 μM 2-mercaptoethanol, and 25 mM KH2PO4, pH 7.4. Cell lysate (400 μg of protein) was added to the reaction buffer. Reactions were incubated at 37° C. for 30 minutes and stopped by addition of 100 μl of 20% TCA, incubated for 5 minutes on ice. 200 μL of activated charcoal solution (10 g activated charcoal, 0.25 g BSA, 0.25 g dextran sulfate, in 100 ml of water) was added, vortexed and maintained at room temperature for 10 minutes. Reactions were centrifuged at 10,000×g for 30 minutes. 200 μL aliquots of the supernatant were read by scintillation counting. All reactions were repeated a minimum of three times.
(A) TS inhibition assay. Jurkat cells were exposed to 10 nM FdUMP[10] or 100 nM 5-FU for the indicated time, lysed and assayed for TS activity. Activity is plotted as percentage of control. […]

[3] = Toxicology study in normal Balb/c mice (histopathology of bone marrow and GI tract)
Protocol: Normal Balb/c mice were treated with identical dose, schedule and route of each drug as in the efficacy studies (i.e. Day 1, 3, 5 and 7). 72 hours after the last dose, animals were sacrificed, bilateral femoral cells harvested and organs fixed in 10% neutral buffered formalin followed by routine tissue processing and sectioning for hematoxylin and eosin staining. Slides were then reviewed by a veterinary pathologist using a Nikon Eclipse 50i light microscope. Photographs of tissues were taken using the NIS Elements D3.10 camera and software system.
Animals were sacrificed 72 hours following their last dose. BM=bone marrow, LI=large intestine, SI=small intestine.
The 5-FU dose was chosen as it delivers the exact same amount of fluoropyrimidine as the F10 dosed at 300 mg/kg. GI tract and bone marrow slides were analyzed by a veterinary pathologist blinded to treatment.

[4] = tested on: Ara-C resistant B6 ALL cells; assay: C57Bl/6 mice injected with Ara-C resistant B6 ALL cells, survival; assay type: in vivo; settings: control median 12 days
Protocol: (§2) Committee approved all mouse experiments. […] Control animals were injected with PBS.
A) Cell viability assays.

[5] = tested on: Ara-C resistant B6 ALL cells; assay: Cell viability assay, Ara-C resistant B6 ALL lines; settings: Mus musculus, 72 h, read-out: average IC50 of cytarabine, relapsed (resistant) cells
Protocol: (§3) All human cell lines were maintained in RPMI media (Gibco, Carlsbad, Calif.) supplemented with 10% FBS, penicillin and streptomycin. Cells were grown at 37° C. with 5% CO2. Viability assays were done using the Cell Titer-Glo assay (Promega, Madison, Wis.) according to the manufacturer's protocol or by Trypan blue exclusion assay using the Countess cell counting system (Invitrogen, Carlsbad, Calif.). All murine cells were maintained in stem cell media (40% DMEM, 40% IMDM, 20% FBS, supplemented with murine SCF to 10 ng/ml, murine IL6 to 2 ng/ml, and murine IL3 to 0.4 ng/ml).
When the mice were moribund bilateral femur cells from 4 separate animals were harvested and they were placed in culture.

[6] = tested on: Jurkat cells, a human T cell ALL line; assay: Sensitivity of Jurkat cells to F10; assay type: cell-based
Excerpt: One pathway that the inventors of the present invention believed could be exploited was the increased uptake of oligonucleotides by ALL cells. F10 is a poison deoxy-oligonucleotide that is a 10mer of the TS inhibitory 5-FU metabolite, 5-fluoro-2′-deoxyuridine-5′-O-monophosphate (FdUMP[10]) SEQ ID NO: 1. […] Activity of these targets is important for any replicating cell regardless of driving mutations. […] In this invention, the activity, toxicity and uptake of F10 in preclinical models of ALL was determined.

[7] = tested on: Baf-3 cells expressing the T315I variant of BCR-ABL; assay: Syngeneic Baf-3 BCR-ABL T315I model in Balb/c mice, survival; assay type: in vivo; settings: 300 mg/kg tail vein QOD x4 doses; p=0.0013
Protocol: as §2

B6 ALL cells [8] = assay: Engraftment of treated B6 ALL cells in syngeneic C57Bl/6 mice; assay type: in vivo, mouse; settings: cells treated with 50 nM F10 for 24 hours prior to injection
Excerpt: B) Engraftment of human HSCs.

[9] = tested on: panel of human and mouse ALL cell lines; settings: for IC50: 72 hours
Protocol: as §3
In order to assess the activity of F10 a panel of human and mouse ALL cell lines were exposed to a titration of F10, 5-FU, cytarabine or doxorubicin. After 72 hours viability was assessed and the IC50 values for each was determined.

[10] = mouse, in vivo
DG-75 tumors = assay: DG75 xenograft in nude mice; settings: 300 mg/kg tail vein QOD for 5 doses
Protocol: (§4) Committee approved all mouse experiments. Luciferase-tagged leukemia cells were transplanted into 6- to 8-wk-old C57Bl/6 or Balb/c recipient mice by tail-vein injection of 1×10^6 viable cells. Mice were monitored by bioluminescent imaging on day 6. Imaging was performed using an IVIS100 imaging system (Caliper LifeSciences, Hopkinton, Mass.). Mice were injected with 150 mg/kg D-Luciferin (Gold Biotechnology, St. Louis, Mo.), anesthetized with isoflurane, and imaged for 2 min. For the xenograft studies 6-8-wk old nude mice were subcutaneously injected with 2×10^6 cells mixed with 200 μl matrigel (BD Bioscience). Chemotherapy was initiated upon detection of clear signals or reproducibly palpable flank tumors. Mice were treated with 300 mg/kg FdUMP[10] by tail vein injection. Control animals were injected with PBS. Repeat luciferase imaging or tumor volume measurements were performed following treatment.
(§5) B) Survival of Balb/c mice injected with Baf-3 cells expressing the T315I variant of BCR-ABL treated with saline or F10 at 300 mg/kg QOD ×4 doses as indicated. […] D) Volumes of Jurkat tumors in nude mice treated with saline or F10 at 300 mg/kg QOD ×5 doses as indicated. […] F) Survival of all xenograft bearing mice from time of injection treated with saline or F10 at 300 mg/kg QOD ×5 doses as indicated. All p values were derived from log rank tests. […]

Jurkat tumors = assay: Jurkat xenograft in nude mice; settings: 300 mg/kg tail vein QOD for 5 doses
Protocol: as §4, §5

SUP-B15 tumors = assay: SUP-B15 xenograft in nude mice; settings: 300 mg/kg tail vein QOD for 5 doses
Protocol: as §4, §5

B6 ALL cells [11] = assay: Syngeneic B6 ALL model in C57Bl/6 mice, survival; settings: 300 mg/kg tail vein QOD
Protocol: as §4
B) Survival of Balb/c mice injected with Baf-3 cells expressing the T315I variant of BCR-ABL treated with saline or F10 at 300 mg/kg QOD ×4 doses as indicated. […] D) Volumes of Jurkat tumors in nude mice treated with saline or F10 at 300 mg/kg QOD ×5 doses as indicated. […] F) Survival of all xenograft bearing mice from time of injection treated with saline or F10 at 300 mg/kg QOD ×5 doses as indicated. All p values were derived from log rank tests.
In this system Baf-3 cells were infected with an MSCV based virus that expressed the T315 variant of BCR-ABL seen in many cases of relapsed Philadelphia chromosome positive ALL^8. […] Nude mice were subcutaneously injected with 2×10^6 cells in matrigel and once a reproducibly palpable tumor was established were treated with F10 at 300 mg/kg or saline by tail vein injection QOD for 5 doses.

[12] = tested on: SUP-B15, Jurkat, and DG75 human ALL cell lines in xenograft models; assay: All xenograft bearing mice (SUP-B15, Jurkat, DG75), survival and eradication; settings: 300 mg/kg QOD for 5 doses
Protocol: as §4, §5

[13] = 72 hour exposure prior to viability, read-out: IC50 B6 ALL
[14] = 5-FU 121 mg/kg QOD x4, sacrificed 72 hours after last dose
[15] = Mus musculus, 72 hour exposure prior to viability, read-out: IC50 B6 ALL
[16] = F10 300 mg/kg QOD x4, sacrificed 72 hours after last dose

**Q.** For `O=c1[nH]cc(F)c(=O)[nH]1` [5-FU, reference compound], which IC50 (B6 ALL cells [1]; [13]) is on record?
**A.** The IC50 was 799 nM.

**Q.** And the IC50 (DG75 cells)?
**A.** The IC50 was 14000 nM.

**Q.** What about the IC50 (Molt-4 cells) of the same compound?
**A.** The IC50 was 4960 nM.

**Q.** What about the IC50 (SUP-B15 cells) of the same compound?
**A.** Its IC50 is 425 nM.

**Q.** What about the IC50 (CCRF-CEM cells) of the same compound?
**A.** The IC50 was greater than 50000 nM.

**Q.** And the “induction of apoptosis (non-apoptotic cells vs controls)” value (B6 ALL cells [2]; 100 nM 5-FU, 72 hours)?
**A.** Its value is “not significantly different from controls”.

**Q.** And the “induction of apoptosis (non-apoptotic cells vs controls)” value (SUP-B15 ALL cells; 100 nM 5-FU, 72 hours)?
**A.** Its value is “not significantly different from controls”.

**Q.** And the “TS inhibition (activity as percentage of control)” value (TS; 100 nM 5-FU, compared with 10 nM F10)?
**A.** Its value is “could not be achieved by 5-FU”.

**Q.** What about the “GI tract toxicity (histopathology)” value [3, 14] of the same compound?
**A.** The value was “abundant tissue damage and immune cell infiltration”.

**Q.** And the “bone marrow toxicity (histopathology)” value [3, 14]?
**A.** The value was “pancytopenic and hemorrhagic marrow”.

**Q.** What does the source list for `Nc1ccn([C@@H]2O[C@H](CO)[C@@H](O)[C@@H]2O)c(=O)n1` [Cytarabine]?
**A.** IC50 (B6 ALL cells [1]; [15]): 11.9 nM; IC50 (B6 ALL cells [1]; Mus musculus, parental B6 ALL, 72 hours, read-out: IC50 of cytarabine, parental cell line): 11 nM; IC50 (DG75 cells; Homo sapiens, DG-75): 64.3 nM; IC50 (Molt-4 cells; Homo sapiens, MOLT-4): 10.6 nM; IC50 (CCRF-CEM cells; Homo sapiens, CCRF-CEM): 8.32 nM; survival compared with control ([4]; cytarabine 100 mg/kg QOD): lived only a day longer; IC50 [5]: 23 nM

**Q.** What does the source list for `COc1cccc2c1C(=O)c1c(O)c3c(c(O)c1C2=O)C[C@@](O)(C(=O)CO)C[C@@H]3O[C@H]1C[C@H](N)[C@H](O)[C@H](C)O1` [Doxorubicin]?
**A.** IC50 (B6 ALL cells [1]; [15]): 4.84 nM; IC50 (DG75 cells; Homo sapiens, DG-75): 150 nM; IC50 (Molt-4 cells; Homo sapiens, MOLT-4): 19.5 nM; IC50 (SUP-B15 cells; Homo sapiens, SUP-B15): 19.4 nM; IC50 (CCRF-CEM cells; Homo sapiens, CCRF-CEM): 36.3 nM

**Q.** For FdUMP[10] [F10], which IC50 (B6 ALL cells [1]; [13]) is on record?
**A.** Its IC50 is 0.07 nM.

**Q.** And the IC50 (DG75 cells)?
**A.** The IC50 was 4.12 nM.

**Q.** And the IC50 (Molt-4 cells)?
**A.** The IC50 was 1.88 nM.

**Q.** What about the IC50 (SUP-B15 cells) of the same compound?
**A.** Its IC50 is 0.21 nM.

**Q.** What about the IC50 (CCRF-CEM cells) of the same compound?
**A.** The IC50 was 1.14 nM.

**Q.** And the “sensitivity of Jurkat cells” value [6]?
**A.** Its value is “low nanomolar sensitivity”.

**Q.** And the “induction of apoptosis (Annexin V and PI positive cells)” value (B6 ALL cells [2]; 1 nM F10, 72 hour exposure)?
**A.** Its value is “robust induction of Annexin V and PI positive cells”.

**Q.** And the “induction of apoptosis (Annexin V and PI positive cells)” value (SUP-B15 ALL cells; 1 nM F10, 72 hour exposure)?
**A.** Its value is “robust induction of Annexin V and PI positive cells”.

**Q.** What about the survival vs saline [7] of the same compound?
**A.** Its survival vs saline is “significant prolongation of survival”.

**Q.** And the “TS inhibition (activity as percentage of control)” value (TS; 10 nM F10, 8-48 hours)?
**A.** Its value is “profound and prolonged TS inhibition”.

**Q.** And the median survival ([4]; F10 300 mg/kg QOD)?
**A.** The median survival was 31 days.

**Q.** And the “engraftment of B6 ALL cells (bioluminescence)” value (B6 ALL cells [8])?
**A.** The value was “significantly reduced engraftment”.

**Q.** And the “potency relative to 5-FU” value [9]?
**A.** The value was “more than 1000 times”.

**Q.** What about the IC50 ([9]; read-out: average IC50 value for all cell lines, average over all cell lines) of the same compound?
**A.** Its IC50 is 1.48 nM.

**Q.** And the IC50 ([9]; read-out: range of IC50 values over all cell lines, range over cell lines)?
**A.** Its IC50 is 0.07 to 5.4 nM.

**Q.** And the “body weight of leukemic mice” value [10]?
**A.** The value was “protected the mice from leukemia induced weight loss”.

**Q.** What about the tumor volume response (DG-75 tumors) of the same compound?
**A.** The tumor volume response was “tumor regression”.

**Q.** What about the tumor volume response (Jurkat tumors) of the same compound?
**A.** Its tumor volume response is “tumor regression”.

**Q.** And the tumor volume response (SUP-B15 tumors)?
**A.** Its tumor volume response is “tumor regression”.

**Q.** What about the “median OS” value (B6 ALL cells [11]; 4 treatments, control 15 days, p<0.0001) of the same compound?
**A.** Its value is 18 days.

**Q.** What about the “median OS” value (B6 ALL cells [11]; 6 treatments, p=0.0009) of the same compound?
**A.** Its value is 24 days.

**Q.** And the “median OS” value (B6 ALL cells [11]; 9 treatments, p=0.0001)?
**A.** Its value is 30 days.

**Q.** And the tumor eradication ([12]; in several cases)?
**A.** The tumor eradication was “complete eradication of the tumor”.

**Q.** And the “survival of all xenograft bearing mice vs saline” value ([12]; p=0.0098)?
**A.** The value was “significant survival advantage”.

**Q.** What about the “GI tract toxicity (histopathology)” value [3, 16] of the same compound?
**A.** Its value is “only a mild increase in apoptotic cells”.

**Q.** And the “bone marrow toxicity (histopathology)” value [3, 16]?
**A.** Its value is “only minimal marrow toxicity”.
